This passage reports EC50 results from patent US8211928B2, “Hepatitis C virus inhibitors” (Bristol-Myers Squibb Company, priority 2009, dated 2012).

For the assay, the system named is HCV 1b genotype. Description: HCV replicon assay, 1b genotype. As to conditions: Hepatitis C virus, HCV 1b genotype replicon. Format: cell-based. The method, then:
An HCV Replion assay was utilized in the present disclosure, and was prepared, conducted and validated as described in commonly owned PCT/US2006/022197 and in O'Boyle et. al. Antimierob Agents Chemother. 2005 April; 49(4):1346-53. Assay methods incorporating luciferase reporters have also been used as described (Apath.com).
HCV-neo replicon cells and HCV replicon cells containing mutations in the NS5A region were used to test the currently described family of compounds. The compounds were determined to have more than 10-fold less inhibitory activity on cells containing mutations than wild-type cells. Thus, the compounds of the present disclosure can be effective in inhibiting the function of the HCV NS5A protein and are understood to be as effective in combinations as previously described in application PCT/US2006/022197 and commonly owned WO/04014852. Further, the compounds of the present disclosure can be effective against the HCV 1b genotype. It should also be understood that the compounds of the present disclosure can inhibit multiple genotypes of HCV. […] In one embodiment, compounds of the present disclosure are inhibitory versus 1a, 1b, 2a, 2b, 3a, 4a, and 5a genotypes. Activity ranges are as follows: A=>100 nM; B=1-100 nM; C=101-999 pM; and D=1-100 pM.
In general terms: A replicon is a self-replicating genome or part of one, used to study replication in cells.

Setting [1] is: activity ranges, read-out: 1b EC50 in Range.

Read-outs that look alike come from different tables or passages of the source.

As usually defined, the EC50 is the midpoint of the concentration-response curve. For `COC(=O)N[C@H](C(=O)N1CCC[C@H]1C(=O)Nc1noc2cc(-c3ccc(-c4cnc([C@@H]5CCCN5C(=O)[C@@H](NC(=O)OC)C(C)C)[nH]4)cc3)ccc12)C(C)C` [Example 5], the EC50 under setting [1] lay in the range of 0.101 to 0.999 nM.

Take `CN(C)[C@@H](C(=O)N1CCC[C@H]1C(=O)Nc1noc2cc(-c3ccc(-c4cnc([C@@H]5CCCN5C(=O)[C@@H](c5ccccc5)N(C)C)[nH]4)cc3)ccc12)c1ccccc1` [Example 6]: the EC50 under setting [1] is 0.101 to 0.999 nM.

On to `COC(=O)N[C@@H](C(=O)N1CCC[C@H]1C(=O)Nc1noc2cc(-c3ccc(-c4cnc([C@@H]5CCCN5C(=O)[C@H](NC(=O)OC)C(C)C)[nH]4)cc3)ccc12)C(C)C` [Example 7], for which, under setting [1], the EC50 was more than 100 nM.

With `COC(=O)N[C@H](C(=O)N1CCC[C@H]1C(=O)Nc1noc2cc(-c3ccc(-c4cnc([C@@H]5CCCN5C(=O)[C@@H](NC(=O)OC)[C@@H](C)OC)[nH]4)cc3)ccc12)[C@@H](C)OC` [Example 8], the EC50 under setting [1] lay in the range of 0.101 to 0.999 nM.

For `COC(=O)N[C@@H](C)C(=O)N1CCC[C@H]1C(=O)Nc1noc2ccc(-c3ccc(-c4cnc([C@@H]5CCCN5C(=O)[C@H](C)NC(=O)OC)[nH]4)cc3)cc12` [Example 12], the EC50 under setting [1] fell in the range of 1 to 100 nM.

`COC(=O)N[C@H](C(=O)N1CCC[C@H]1C(=O)Nc1noc2ccc(-c3ccc(-c4cnc([C@@H]5CCCN5C(=O)[C@@H](NC(=O)OC)C(C)C)[nH]4)cc3)cc12)C(C)C` [Example 13]: the EC50 runs as follows: under setting [1], 1 to 100 nM; (read-out: 1b EC50) 30.1 nM.

Consider `COC(=O)N[C@H](C(=O)N1CCC[C@H]1C(=O)Nc1noc2ccc(-c3ccc(-c4cnc([C@@H]5CCCN5C(=O)[C@@H](NC(=O)OC)[C@@H](C)OC)[nH]4)cc3)cc12)[C@@H](C)OC` [Example 14], for which the EC50 under setting [1] was in the range of 1 to 100 nM.

In the case of `COCC[C@H](NC(=O)OC)C(=O)N1CCC[C@H]1C(=O)Nc1noc2ccc(-c3ccc(-c4cnc([C@@H]5CCCN5C(=O)[C@H](CCOC)NC(=O)OC)[nH]4)cc3)cc12` [Example 15], under setting [1], the EC50 was 1 to 100 nM.

`COC(=O)N[C@@H](C(=O)N1CCC[C@H]1C(=O)Nc1noc2ccc(-c3ccc(-c4cnc([C@@H]5CCCN5C(=O)[C@H](NC(=O)OC)C(C)C)[nH]4)cc3)cc12)C(C)C` [Example 16]: the EC50 under setting [1] was more than 100 nM.

For `CN(C)[C@@H](C(=O)N1CCC[C@H]1C(=O)Nc1noc2ccc(-c3ccc(-c4cnc([C@@H]5CCCN5C(=O)[C@@H](c5ccccc5)N(C)C)[nH]4)cc3)cc12)c1ccccc1` [Example 17], the EC50 under setting [1] was in the range of 1 to 100 nM.

With `COC(=O)N[C@@H](C)C(=O)N1CCC[C@H]1C(=O)Nc1n[nH]c2cc(-c3ccc(-c4cnc([C@@H]5CCCN5C(=O)[C@H](C)NC(=O)OC)[nH]4)cc3)ccc12` [Example 22, (S)-1-((S)-2-Methoxycarbonylaminopropanoyl)-N-(6-(4-(2-((S)-1-((S)-2-methoxycarbonylaminopropanoyl)pyrrolidin-2-yl)-1H-imidazol-5-yl)phenyl)-1H-indazol-3-yl)pyrrolidine-2-carboxamide], the EC50 under setting [1] was in the range of 1 to 100 nM.

Take `CCN(CC)[C@@H](C(=O)N1CCC[C@H]1C(=O)Nc1n[nH]c2cc(-c3ccc(-c4cnc([C@@H]5CCCN5C(=O)[C@@H](c5ccccc5)N(CC)CC)[nH]4)cc3)ccc12)c1ccccc1` [Example 23]: the EC50 was 0.001 to 0.1 nM under setting [1] and 0.043 nM (read-out: 1b EC50).

`COC(=O)N[C@H](C(=O)N1CCC[C@H]1C(=O)Nc1n[nH]c2cc(-c3ccc(-c4cnc([C@@H]5CCCN5C(=O)[C@@H](NC(=O)OC)C(C)C)[nH]4)cc3)ccc12)C(C)C` [Example 24]: under setting [1], the EC50 fell in the range of 0.101 to 0.999 nM.

`COC(=O)N[C@H](C(=O)N1CCC[C@H]1C(=O)Nc1n[nH]c2cc(-c3ccc(-c4cnc([C@@H]5CCCN5C(=O)[C@@H](NC(=O)OC)[C@@H](C)OC)[nH]4)cc3)ccc12)[C@@H](C)OC` [Example 25]: under setting [1], the EC50 lay within 1 to 100 nM.

Take `COC(=O)N[C@@H](C)C(=O)N1CCC[C@H]1C(=O)Nc1n[nH]c2ccc(-c3ccc(-c4cnc([C@@H]5CCCN5C(=O)[C@H](C)NC(=O)OC)[nH]4)cc3)cc12` [Example 29]: the EC50 under setting [1] is more than 100 nM.

In the case of `CN(C)[C@@H](C(=O)N1CCC[C@H]1C(=O)Nc1n[nH]c2ccc(-c3ccc(-c4cnc([C@@H]5CCCN5C(=O)[C@@H](c5ccccc5)N(C)C)[nH]4)cc3)cc12)c1ccccc1` [Example 30], under setting [1], the EC50 was in the range of 1 to 100 nM.

On to `COC(=O)N[C@H](C(=O)N1CCC[C@H]1C(=O)Nc1n[nH]c2ccc(-c3ccc(-c4cnc([C@@H]5CCCN5C(=O)[C@@H](NC(=O)OC)C(C)C)[nH]4)cc3)cc12)C(C)C` [Example 31], for which the EC50 under setting [1] was more than 100 nM.

Take `COCC[C@H](NC(=O)OC)C(=O)N1CCC[C@H]1C(=O)Nc1n[nH]c2ccc(-c3ccc(-c4cnc([C@@H]5CCCN5C(=O)[C@H](CCOC)NC(=O)OC)[nH]4)cc3)cc12` [Example 32]: the EC50 under setting [1] lay within 1 to 100 nM.

With `COC(=O)N[C@H](C(=O)N1CCC[C@H]1C(=O)Nc1n[nH]c2ccc(-c3ccc(-c4cnc([C@@H]5CCCN5C(=O)[C@@H](NC(=O)OC)[C@@H](C)OC)[nH]4)cc3)cc12)[C@@H](C)OC` [Example 33], the EC50 was more than 100 nM under setting [1] and 1200 nM (read-out: 1b EC50).

Turning to `COC(=O)N[C@@H](C(=O)N1CCC[C@H]1C(=O)Nc1n[nH]c2ccc(-c3ccc(-c4cnc([C@@H]5CCCN5C(=O)[C@H](NC(=O)OC)c5ccccc5)[nH]4)cc3)cc12)c1ccccc1` [Example 34], the EC50 under setting [1] was in the range of 1 to 100 nM.
